According to publication PMC7922224, “Searching for Small Molecules as Antibacterials: Non-Cytotoxic Diarylureas Analogues of Triclocarban” (Antibiotics, 2021):
Converted amounts (≈) assume the structure as drawn.

Experiments:
[1] = system: S. aureus ATCC 29213; assay: MIC by broth microdilution (CLSI); format: cell-based, Staphylococcus aureus; settings: Staphylococcus aureus, ATCC29213; Gram-positive; 37 °C, 24 h, Mueller Hinton Broth
Procedure: (§1) The in vitro Minimum Inhibitory Concentrations (MICs, μg/mL) were determined by the broth microdilution method according to the Clinical Laboratory Standards Institute (CLSI) guidelines. MIC values were recorded as the lowest concentration of compounds at which there was no optically detectable microorganism growth and evaluated by comparing the growth in each well visually with that of the growth in the control well for bacteria. All compounds were dissolved in dimethyl sulfoxide (DMSO) and were tested in a final concentration range of from 512 to 2 µg/mL. MICs for the reference antibiotic norfloxacin against quality control strains were used to confirm the validity of the screen. According to the CLSI guidelines, diphenylureas were tested in vitro against a panel of Gram-positive and Gram-negative bacteria belonging to the ATCC collection using the standard microdilution test for the determination of MICs. MICs of the synthesised compounds along with the parent compound TCC and with the standard antibiotic norfloxacin are listed in Table 1. The compounds were also analyzed in terms of molecular mass, logP (Table 1), number of hydrogen-bond donors and number of hydrogen-bond acceptors, and most of them obeyed Lipinski’s rule. […] Based on our results, it seems that the 3,4-dichloro-disubstitution pattern, which is present in TCC, is not crucial for activity. […] Moreover, the activity against Enterococcus faecalis was interesting. E. faecalis is a ubiquitous member of the healthy human gut microbiota and also a common opportunistic pathogen and leading cause of nosocomial infections. It has a high incidence for most infections, and the case numbers have been increasing in recent decades, likely due to its greater ability to persist in healthcare facilities and its higher abundance in the human gut microbiome. Kim et al. (2016) compared the bactericidal effects of plain and antibacterial soap containing 0.3% TCC. The authors found no significative difference between the effects of plain and medicated soap at either temperature, with the only exception of E. faecalis ATCC 19433 at 40 °C.
(§2) MICs (μg/mL) were determined by the broth microdilution method, using 96-well plates, according to CLSI [26]. Stock solutions of the investigated compounds were obtained by setting the concentration at the maximum possible value. Then, the stock solutions were diluted 1:10 with Mueller Hinton Broth (Oxoid, Italy). Afterwards, twofold serial dilutions in the suitable test medium were carried out to obtain a set of concentrations from 512 to 2 µg/mL in the wells. To obtain the stock solution, DMSO (100%) was employed as diluent. The following bacteria strains, available as freeze-dried discs, belonging to the ATCC collection, were used: Gram-positive: S. aureus ATCC 29213, 6538, and 6538P, E. faecalis ATCC 29212; Gram-negative: K. pneuomoniae ATCC 13883, P. aeruginosa ATCC 27853. To conserve the purity of cultures and to enable their reproducibility, cryovials of all microbial strains in the medium were set up and stored at −80 °C. Pre-cultures of each bacterial strain were prepared in Mueller Hinton Broth (MHB) and incubated at 37 °C for 3–5 h. The turbidity of bacterial cell suspension was calibrated to 0.5 McFarland Standard by the spectrophotometric method (OD 625 nm 0.08–0.10), as indicated in the CLSI protocol M7-A9 and, further, the standardized suspension was diluted (1:100) with MHB to reach 1–2 × 10^6 CFU/mL. All wells were seeded with 100 µl of the mentioned final inoculum, and some wells contained only inoculated broth as control growth. […] The MICs were determined by using the assay repeated twice in triplicate. Throughout the study, norfloxacin was used as reference antibiotic. Appropriate controls involved norfloxacin for bacteria as international reference standard. […]

[2] = system: S. aureus ATCC 6538P; assay: MIC by broth microdilution (CLSI); format: cell-based, Staphylococcus aureus; settings: Staphylococcus aureus, ATCC6538P; Gram-positive; 37 °C, 24 h, Mueller Hinton Broth
Procedure: as §1, §2

[3] = system: S. aureus ATCC 6538; assay: MIC by broth microdilution (CLSI); format: cell-based, Staphylococcus aureus; settings: Staphylococcus aureus, ATCC6538; Gram-positive; 37 °C, 24 h, Mueller Hinton Broth
Procedure: as §1, §2

[4] = system: E. faecalis ATCC 29212; assay: MIC by broth microdilution (CLSI); format: cell-based, Enterococcus faecalis; settings: Enterococcus faecalis, ATCC29212; Gram-positive; 37 °C, 24 h, Mueller Hinton Broth; read-out: MIC E.f. 29212
Procedure: as §1, §2

[5] = system: E. coli 25922; assay: MIC by broth microdilution (CLSI); format: cell-based; settings: Escherichia coli, Gram-negative, 37 °C, 24 h, Mueller Hinton Broth
[6] = system: K. pneumoniae ATCC 13883; assay: MIC by broth microdilution (CLSI); format: cell-based; settings: Klebsiella pneumoniae, ATCC13883; Gram-negative; 37 °C, 24 h, Mueller Hinton Broth; read-out: MIC K.p. 13883
Procedure: as §1, §2

[7] = system: P. aeruginosa ATCC 27853; assay: MIC by broth microdilution (CLSI); format: cell-based; settings: Pseudomonas aeruginosa, ATCC27853; Gram-negative; 37 °C, 24 h, Mueller Hinton Broth
Procedure: as §1, §2

[8] = system: Staphylococcus aureus; assay: MIC by broth microdilution, S. aureus (strain not given); format: cell-based; settings: strain not specified (best value among the ATCC strains), read-out: MIC against S. aureus
Procedure: as §1, §2

[9] = system: A2058 melanoma epithelial cells; assay: MTT cell viability assay; format: cell-based; settings: Homo sapiens, 72 h, mean ± SD of three independent experiments
From the text: (§3) Human MCF-7 and MDA-MB-231 breast cancer cells, HeLa and […] uterine carcinoma cells, A2058 melanoma epithelial cells, MCF-10A mammary epithelial cells and Hek-293 embryonic kidney epithelial cells were obtained from American Type Culture Collection (ATCC, Manassas, VA, USA). Estrogen receptor positive [(ER(+)] MCF-7 and triple negative MDA-MB-231 breast cancer cells were maintained in Dulbecco’s modified Eagle’s medium/nutrient mixture F-12 Ham (DMEM-F12) medium containing 2 mmol/L L-glutamine, 1 mg/mL penicillin-streptomycin and supplemented with 5% fetal bovine serum (FBS). HeLa epithelial cervix carcinoma cells, estrogen receptor negative [ER(-)], and Ishikawa endometrial adenocarcinoma cell, estrogen receptor positive [ER(+)], were kept in minimum essential medium (MEM), supplemented with 10% FBS, 100 U/mL penicillin/streptomycin and 1% non-essential amino acid. A2058 highly metastatic melanoma epithelial cells were kept in DMEM low glucose (1 g/L), supplemented with 20% FBS, 1% l-glutamine and 100 U/mL penicillin/streptomycin. MCF-10A mammary epithelial cells, were cultured in DMEM/F12 medium, supplemented with 5% horse serum (HS), 100 U/mL penicillin/streptomycin, […] hydrocortisone, 20 ng/mL human epidermal growth factor (hEGF), […] and […] cholera enterotoxin (Sigma-Aldrich, Milan, Italy). Hek-293 embryonic kidney epithelial cells were cultured in DMEM high glucose (4.5 g/L), supplemented with 10% FBS, 1% l-glutamine and 100 U/mL penicillin/streptomycin. Cells were conserved at 37 °C in a humid atmosphere of 95% air and 5% CO2, and screened for contamination at regular intervals.
(§4) Cell viability was determined using the 3-(4,5-dimethylthiazol-2-y1)-2,5-diphenyltetrazolium bromide (MTT, Sigma-Aldrich, Milan, Italy) assay. Cells were seeded on 48-well plates and grown in complete medium. Before treatment, cells were starved in serum free medium for 24 h to allow cell cycle synchronization. […] Data are representative of three independent experiments; standard deviations (SD) are shown.

[10] = system: HeLa uterine cancer cells; assay: MTT cell viability assay; format: cell-based; settings: Homo sapiens, 72 h, mean ± SD of three independent experiments
From the text: as §3, §4

[11] = system: Hek-293 embryonic kidney epithelial cells; assay: MTT cell viability assay; format: cell-based; settings: Homo sapiens, HEK293, normal cells, 72 h, mean ± SD of three independent experiments
From the text: as §3, §4

[12] = system: Ishikawa uterine cancer cells; assay: MTT cell viability assay; format: cell-based; settings: Homo sapiens, 72 h, mean ± SD of three independent experiments
From the text: as §3, §4

[13] = system: MCF-10A mammary epithelial cells; assay: MTT cell viability assay; format: cell-based; settings: Homo sapiens, normal cells, 72 h, mean ± SD of three independent experiments
From the text: as §3, §4

[14] = system: MCF-7 breast cancer cells; assay: MTT cell viability assay; format: cell-based; settings: Homo sapiens, MCF7, 72 h, mean ± SD of three independent experiments
From the text: as §3, §4

[15] = system: MDA-MB-231 breast cancer cells; assay: MTT cell viability assay; format: cell-based; settings: Homo sapiens, 72 h, mean ± SD of three independent experiments
From the text: as §3, §4

[16] = system: cancer cell lines (MCF-7, MDA-MB-231, HeLa, Ishikawa, A2058); assay: MTT cell viability assay, panel of cancer cell lines; format: cell-based; settings: Homo sapiens, all cancer cell lines used, 72 h, read-out: IC50 against the cancer cell lines
From the text: In order to investigate the anticancer effects of compounds 1ab, 1bc and 1ce (TCC), we used different human cancer cell models, namely, two breast cancer cells (MCF-7 and MDA-MB-231), two uterine cancer cells (HeLa and Ishikawa) and the melanoma epithelial cells A2058.
as §3
Cell viability was determined using the 3-(4,5-dimethylthiazol-2-y1)-2,5-diphenyltetrazolium bromide (MTT, Sigma-Aldrich, Milan, Italy) assay. […]

[17] = system: S. aureus ATCC 29213; set-up: method as in earlier work; settings: reference antibiotic, values according to CLSI (2012) ref 26; cited from earlier work
[18] = system: E. faecalis ATCC 29212; set-up: method as in earlier work; settings: reference antibiotic, values according to CLSI (2012) ref 26; cited from earlier work
[19] = system: E. coli 25922; set-up: method as in earlier work; settings: reference antibiotic, values according to CLSI (2012) ref 26; cited from earlier work
[20] = system: P. aeruginosa ATCC 27853; set-up: method as in earlier work; settings: reference antibiotic, values according to CLSI (2012) ref 26; cited from earlier work
[21] = system: K. pneumoniae ATCC 13883; set-up: method as in earlier work; settings: reference antibiotic, values according to CLSI (2012) ref 26; cited from earlier work

| MIC [1] | MIC [2] | MIC [3] | MIC [4] | MIC [5] | MIC [6] | MIC [7] | MIC [8] | IC50 [9] | IC50 [10] | IC50 [12] | IC50 [14] | IC50 [15] | IC50 [16] | melting point | Compound | IC50 [11] | IC50 [13] | also measured |
| --- | --- | --- | --- | --- | --- | --- | --- | --- | --- | --- | --- | --- | --- | --- | --- | --- | --- | --- |
| > 256 µg/mL | 16 µg/mL (≈ 62.9 µM) | 16 µg/mL (≈ 62.9 µM) | 32 µg/mL (≈ 126 µM) | > 256 µg/mL | > 256 µg/mL | > 256 µg/mL | 16 µg/mL (≈ 62.9 µM) | > 200 µg/mL | > 200 µg/mL | > 200 µg/mL | > 200 µg/mL | > 200 µg/mL | > 200 µg/mL | 242 to 243 °C | Cc1ccc(NC(=O)Nc2c(C)cccc2C)cc1 [1ab, 1-(2,6-Dimethylphenyl)-3-p-tolylurea] | > 200 µg/mL | > 200 µg/mL | – |
| 256 µg/mL (≈ 932 µM) | 16 µg/mL (≈ 58.2 µM) | 16 µg/mL (≈ 58.2 µM) | 32 µg/mL (≈ 116 µM) | > 256 µg/mL | > 256 µg/mL | > 256 µg/mL | 16 µg/mL (≈ 58.2 µM) | > 200 µg/mL | > 200 µg/mL | > 200 µg/mL | > 200 µg/mL | > 200 µg/mL | > 200 µg/mL | 244 to 245 °C | Cc1cccc(C)c1NC(=O)Nc1ccc(Cl)cc1 [1bc, 1-(2,6-Dimethylphenyl)-3-(4-chlorophenyl)urea] | > 200 µg/mL | > 200 µg/mL | – |
| 16 µg/mL (≈ 50.7 µM) | 16 µg/mL (≈ 50.7 µM) | 128 µg/mL (≈ 406 µM) | 64 µg/mL (≈ 203 µM) | 256 µg/mL (≈ 811 µM) | 256 µg/mL (≈ 811 µM) | 256 µg/mL (≈ 811 µM) | 16 µg/mL (≈ 50.7 µM) | 0.89 ± 0.7 µg/mL (≈ 2.82 µM) | 1.01 ± 1.1 µg/mL (≈ 3.2 µM) | 1.68 ± 0.9 µg/mL (≈ 5.32 µM) | 0.64 ± 0.5 µg/mL (≈ 2.03 µM) | 0.89 ± 0.8 µg/mL (≈ 2.82 µM) | 0.64 to 1.68 µg/mL (≈ 2.03 to 5.32 µM) | – | O=C(Nc1ccc(Cl)cc1)Nc1ccc(Cl)c(Cl)c1 [1ce (TCC), 1-(3,4-Dichlorophenyl)-3-(4-chlorophenyl)urea, reference compound] | 1.6 ± 0.8 µg/mL (≈ 5.07 µM) | 1.43 ± 0.7 µg/mL (≈ 4.53 µM) | – |
| – | – | – | – | – | – | – | – | – | – | – | – | – | – | – | CCn1cc(C(=O)O)c(=O)c2cc(F)c(N3CCNCC3)cc21 [NRF, norfloxacin] | – | – | MIC S.a. 29213 [17]: 0.5 to 2 µg/mL; MIC E.f. 29212 [18]: 2 to 8 µg/mL; MIC E.c. 25922 [19]: 0.03 to 0.12 µg/mL; MIC P. a. 27853 [20]: 1 to 4 µg/mL; MIC K.p. 13883 [21]: 0.5 to 1 µg/mL |
